Assay results: US11767374B2, “Method and use of Radix puerariae polysaccharide in promoting lipid-lowering activity” (JIANGXI UNIVERSITY OF TRADITIONAL CHINESE MEDICINE, priority 2020, dated 2023)

System: high-cholesterol hyperlipidemia rats
Assay: In vivo lipid-lowering experiment in high-cholesterol hyperlipidemia rats
Set-up: species or system Wistar rats
Settings: plasma, positive drug 8 mg/kg, half a month
Excerpt: 56 male Wistar rats (8 weeks old, body weight: 200 g±20 g) were purchased from Beijing Vital River Laboratory Animal Technology Co., Ltd. All animals were fed with a normal diet adaptively for 1 week.
The rats were sampled every half month to determine the plasma total triglyceride (TG), total cholesterol (TC), low-density lipoprotein (LDL-C), and high-density lipoprotein (HDL-C) levels. 2 months later, all rats were anesthetized with isoflurane, and then blood samples were collected from the orbital vein using capillary tubes. The blood samples were centrifuged (4° C., 4,000 r×min^−1, and 15 min) to obtain plasma samples, a kit (purchased from Nanjing Jiancheng Biotechnology Co., Ltd., China) was used to make a standard curve, and a chromogenic reaction was conducted according to specified steps to determine the plasma TG, TC, LDL-C, and HDL-C levels, thereby determining whether hyperlipidemia models were successfully constructed.
The rats were intragastrically administered for half a month. The night before the experiment, the rats were fasted; and on the day of the experiment, the rats were weighed and resulting body weights were recorded. The rats were anesthetized with isoflurane, then blood was collected from the orbit and placed in a heparin sodium centrifuge tube, and blood samples were centrifuged (4° C., 4,000 r×min^−1, and 15 min) to obtain plasma samples. A kit (purchased from Nanjing Jiancheng Biotechnology Co., Ltd., China) was used to make a standard curve, and the plasma TG, TC, LDL-C, and HDL-C levels were determined according to specified steps. The rats were sacrificed through cervical dislocation, and then a liver tissue was collected and weighed. A liver index was calculated according to the following formula: liver index=liver weight (g)/rat weight (g).
Data analysis: In this experiment, the SPSS11.5 version was used to analyze data (3 repetitions), and analysis of variance (ANOVA) and intergroup Duncan multiple comparison were adopted.

Work on `CCC(C)(C)C(=O)O[C@H]1C[C@@H](C)C=C2C=C[C@H](C)[C@H](CC[C@@H]3C[C@@H](O)CC(=O)O3)[C@H]21` [Simvastatin, simvastatin] yielded an HDL-C of 2.89 ± 0.44 b mmol/L, an LDL-C of 0.51 ± 0.09 b mmol/L and a TG of 0.87 ± 0.27 c mg/mL.
